Laboratory results taken from PMC9084902, “Low-Molecular Weight Protamine Overcomes Chondroitin Sulfate Inhibition of Neural Regeneration” (Frontiers in Cell and Developmental Biology, 2022).
Entries after “also recorded” stand apart in the source; their conditions may differ.

Experiments:
[1] = system: NF200+ fibers in trauma hemisphere of spinal cord; test: NF200 immunohistochemistry, C5 hemicontusion, subcutaneous delivery; type: in vivo, C57BL6/NHsd mouse; conditions: 16 µg s.c. daily 49 days
Experimental: (§1) The effectiveness of systemically delivered LMWP in treatment of spinal cord trauma was tested in the cervical hemicontusion model (Figure 1B). Baseline behavior was assessed 1 week before the trauma surgery, and the results were used for balanced distribution of animals to the 3 experimental groups (“sham”, “trauma + PBS” and “trauma + LMWP”). Each housing cage contained animals from all three groups. Subcutaneous injections to the back area were started on the next day after the trauma and continued daily for 49 days. LMWP was injected subcutaneously at the 16 µg dose in 200 µl of sterile PBS. The groups “sham” and “trauma + PBS” got the same volume of PBS. Behavioral assessment was started 2 weeks after the trauma and finished at the week 12.
The samples for immunohistochemistry (IHC) were taken from all animals tested in the hemicontusion study with subcutaneous 7 weeks treatment (Figure 1B) at the end of the experiment at 12 weeks (Figure 1B). The cervical spinal cord segments were sectioned into 40 microns thick transverse sections from tissue blocks (samples embedded into solid OCT compound by freezing with dry ice) by using microtome (Leica CM3050 S). Few spinal cord samples were excluded from the study due to technical problems in spinal cord dissection or sectioning procedures, and the total amount of 11 spinal cords of the “trauma + PBS” and 7 spinal cords of the “trauma + LMWP” group were analyzed. Every fourth section per animal was chosen for IHC neurofilament staining making the section interval […]. The sections were stained with primary antibodies against NF200 (ab8135, Abcam, 1:500) in blocking buffer (1xTBS with 0.5% TX-100 and with 3%BSA) and AlexaFluor 594 (REF A11037, Invitrogen) secondary antibodies at the dilution 1:400 in TBS-T (1xTBS with 0.5% TX-100) on microscope slides. The washings prior to and between the stainings were done with TBS-T, whereas the final wash before mounting with Vectastain mounting medium with DAPI, was done by using reverse osmose water. […]

[2] = cited from earlier work
From the text: We therefore tested protamine fragments that might be nontoxic but would still retain the ability to overcome the CSPG inhibition. […] This fragment is found in the literature as the low-molecular weight protamine (LMWP) with the capability to penetrate through the cell membranes and to carry drug cargoes to tissues including ...

[3] = system: PTPσ ectodomain binding to aggrecan; test: solid phase binding of wild-type PTPσ ectodomain to aggrecan, competition by LMWP
From the text: The N-terminal extracellular part of PTPσ (protein tyrosine phosphatase sigma; PTPRS) that contains the three Ig domains (amino acids 1-321) and mediates CSPG binding ([Shen et al., 2009]) was cloned using the PTPσ cDNA kindly provided by Dr. John Flanagan (Harvard University). The PTPσ mutant lacking the CS binding site in the Ig1 domain was produced as described ([Shen et al., 2009]). The recombinants were produced as Fc-tagged proteins in 293T HEK cells and purified on protein A Sepharose.
The competition assay for LMWP in binding of PTPσ to aggrecan was done in a similar way as earlier ([Paveliev et al., 2016]). Briefly, after overnight coating with 10 μg/ml aggrecan (150 ul/well) at 4°C 96-well tissue culture plates (Nunc) were washed two times with 0.05% Tween-20 in PBS and were blocked for 1 h at room temperature with 1%BSA and 0.05% Tween-20 in PBS. The recombinant wild type PTPσ ectodomain or the mutated ectodomain lacking CS binding (80 nM) were mixed with different concentrations of LMWP in 1% BSA and 0.05% Tween-20 in PBS, and were incubated in the plates overnight at 4°C. After washing with 0.05% Tween20 (3 times, room temperature), the wells were incubated for 1 h (room temperature) with HRP conjugated goat anti-human FC part of IgG (1:5000, in 1% BSA and 0.05% Tween20 PBS) to detect the bound PTPσ. […]

[4] = system: mouse cervical hemicontusion model; test: cylinder test, C5 hemicontusion, ICV delivery; type: in vivo, C57BL6/NHsd mouse; conditions: ICV LMWP; weeks 4, 6 and 8; n = 6–11
Experimental: (§2) The mouse was placed into the glass cylinder of 13 cm in diameter and 15 cm high. A mirror was positioned at the angle behind the cylinder for better observation. The mouse was videotaped for the first 20 exploratory vertical rearings or for 5 min. The number of rearings in which the mouse used the right (impaired), the left or both limbs for support against the wall was measured. Paw preference was calculated as the ratio of total number of left limb use (left + both) to total number of right (impaired) limb use (right + both). A trial with less than 5 rearings within 5 min was excluded from the analysis.

[5] = system: mouse cervical hemicontusion model; test: cylinder test, C5 hemicontusion, subcutaneous delivery; type: in vivo, C57BL6/NHsd mouse; conditions: 16 µg s.c. daily 49 days; n = 7–13; difference not statistically significant
Experimental: as §1, §2

VSRRRRRRGGRRRR [LMWP, low-molecular weight protamine]
NF200+ signal area near trauma epicenter versus PBS ([1]; 60 µm rostral, p = 0.0064, no similar trend in the sections around): significant difference of the NF200+ signal area in one section level localized almost in the middle of the trauma epicenter | area of NF200+ signal on trauma periphery versus PBS ([1]; about ±400 µm from epicenter: 400 µm rostral p = 0.0021, −400 µm caudal p = 0.0346, Mann-Whitney, n = 7–11): increased the area of the NF200+ signal in the section levels located on the trauma periphery | NF200+ fibers (%) in trauma hemisphere, LMWP versus control group ([1]; week 12, n = 7–11): statistically significant group difference between the LMWP-treated mice and the control mice in NF200+ fibers (%) | blood-brain barrier passage [2]: reported to pass the blood-brain barrier | cell membrane penetration and cargo delivery to tissues including the brain [2]: capability to penetrate through the cell membranes and to carry drug cargoes to tissues including the brain | toxicity relative to protamine ([2]; ref Byun et al., 2000, He et al., 2014, Edwards et al., 2020): non-toxic substitute of protamine | inhibition of PTPσ binding to aggrecan ([3]; 80 nM PTPσ-Fc, 10 μg/ml aggrecan coating, increasing LMWP, overnight 4°C, HRP anti-Fc/OPD 492 nm, n = 3, Figure 5C): progressively decreased by increasing LMWP concentrations; also recorded: clearly inhibited PTPσ binding to aggrecan in a similar manner as HB-GAM | similarity of LMWP to mutated PTPσ in binding suppression ([3]; aggrecan substrate, increasing LMWP concentrations): mimicked the binding suppression effect seen with the mutated PTPσ | ipsilateral front paw use versus sham [4]: reduction in front paw use asymmetry starting from the week 4 after the trauma; also recorded: not significantly different from the sham group on the weeks 4, 6 and 8 after the trauma | front paw use asymmetry versus PBS [5]: tendency for better improvement of the LMWP group compared to the PBS group although the difference was not statistically significant
